# Assay results: patent EP1105515B1, “ALPHA 2,8/2,9 POLYSIALYLTRANSFERASE” (THE SCRIPPS RESEARCH INSTITUTE, priority 1998, dated 2000)
# System: neuS gene product of E.coli K92 expressed in BL21(DE3)
# Experiment: Sialyltransferase assay: substrate specificity for acceptor substrates (transfer of 14C-NeuAc from CMP[14C]NeuAc)
# Type: biochemical
# Settings: for Total sialic acid transferred / cpm obtained (per 60 ul reaction): 1 (M acceptor, 9 nmol CMP[14C]NeuAc (8000 cpm/nmol) as donor, 37 °C, 1 hr, 20 (g of 40K Sup; for Total sialic acid transferred: per 60 ul reaction; for cpm obtained (per 60 ul reaction): product spot on DEAE-cellulose TLC counted; for suitability as acceptor substrate (in words): cell-free fractions (15 K Sup, 40 K Sup, pellet), CMP[14C]NeuAc as donor
# Method: The assay was carried out essentially as described by Vimr et al (Steenbergen, S. M. et al. (1992) J. Bacteriol. 174 : 1099-1108) with the following modifications : after harvesting, the cells were washed three times with 25 mM Tris HCI (pH 8. 0) and then resuspended in 25 mM Tris HCl (pH 8. 0) containing 5 mM MgCl2, 5 mM dithiothreitol (DTT), and 1 (1/mL protease inhibitor cocktail (Sigma). Cells were lysed three times by using a French Press (AMINCO; 1, 500 psi). The cell debris was removed by centrifugation twice at 15, 000 rpm and the supernatant was collected (termed the 15 K Sup). This supernatant was then centrifuged again at 100,000x g (~ 40 K rpm) using a Beckman ultracentrifuge (Model L5-50). Both the supernatant (termed the 40 K Sup) and the pellet were saved. The pellet was resuspended in a buffer containing 25 mM Tris-HCI, 5 mM MgCl2, 5 mM DTT, and 0.1% Triton CF-54. The supernatants and the pellet were stored on ice, and used for assay within 2 h.
# Without the addition of acceptor, the endogenous enzyme activity was determined. The exogenous activity was then detected by addition of sialic acid as acceptor and CMP[^14C]NeuAc as donor in a reaction buffer containing 25 mM Tris-HCl (pH 8.0), 5 mM MgCl2, 5 mM DTT, and 0.5% Triton CF-54. Other substrates were also used, including colominic acid. Both the endogenous and exogenous enzyme activity assays measure the transfer of ^14C-labeled NeuAc to the acceptor. Unreacted radiolabeled substrates were seperated by DEAE-cellulose TLC (n-propanol/14M NH4OH/H2O:: 6 : 1: 3) or by Sephadex G-25 column chromatography. Radioactivity remaining at the origin and/or at the top of the TLC plate or the product obtained at the void volume of Sephadex G-25 column, was quantitated by liquid scintillation spectrometry. For analysis using Sephadex G-25 column chromatography, a column (1 cm x 3.5 cm) of Sephadex G-25 (Pharmacia) in water was prepared. The radiolabeled cell-free reaction mixture (60 (1) was loaded and washed with 1.5 ml of water, which was collected and counted. In some experiments, the activity was determined by separating the unused CMP[^14C]NeuAc by Dowex 1X8 (phosphate form) column chromatography (Williams, M. A. et al. (1995) Glycoconj. J. 12: 755 - 761). The initial rates were estimated graphically, and activity was expressed as pmoles of sialic acid transferred per hour.
# The reaction mixture (60 (l) contained 1 (M each of the following acceptors and 9 nmol of CMP[^14C]NeuAc (specific activity: 8000 cpm/nmol) as donor substrate. The reactions were carried out at 37 °C for 1 hr using 20 (g of 40K Sup as mentioned in 'Materials and Methods.' The reaction mixture (1 (1) was spotted on a plastic backed DEAE-cellulose TLC plate, and ran in n-propanol:14.5M NH4OH:water :: 6:1:3. After air-drying, the plate was exposed to Kodak's XAR-5 film for overnight at -70° C. The area corresponding to the reaction product was marked, cut and then counted in scintillation fluid.
Compound,Total sialic acid transferred,cpm obtained (per 60 ul reaction),suitability as acceptor substrate (in words),suitability as acceptor substrate (in words) (listed as neuraminic acid)
CC(=O)N[C@H]1[C@H]([C@H](O)[C@H](O)COC(C)=O)OC(O)(C(=O)O)C[C@@H]1O (stereo partly drawn) [9-O-acetyl sialic acid],110 pmol,900 cpm,not well accepted,
CC(=O)N[C@H]1[C@H]([C@H](O)[C@H](O)CO)O[C@@](O[C@H](CO)[C@@H](O)[C@@H]2OC(O)(C(=O)O)C[C@H](O)[C@H]2NC(C)=O)(C(=O)O)C[C@@H]1O (stereo partly drawn) [Dimer],140 pmol,1080 cpm,poor acceptors,
"CC(=O)N[C@H]1[C@H]([C@H](O)[C@H](O)CO)OC(O)(C(=O)O)C[C@@H]1O (stereo partly drawn) [Monomer, sialic acid]",470 pmol,3780 cpm,good acceptors,best substrate
CC(=O)N[C@H]1[C@H]([C@H](O)[C@H](O)CO)O[C@@](O[C@H](CO)[C@@H](O)[C@@H]2O[C@@](O[C@H](CO)[C@@H](O)[C@@H]3OC(O)(C(=O)O)C[C@H](O)[C@H]3NC(C)=O)(C(=O)O)C[C@H](O)[C@H]2NC(C)=O)(C(=O)O)C[C@@H]1O (stereo partly drawn) [Trimer],140 pmol,1560 cpm,poor acceptors,
GT1b,130 pmol,1140 cpm,,
